From patent publication US20250326722A1 (SHANGHAI HANSOH BIOMEDICAL CO., LTD., priority 2022, published 2025) come the findings set out here.

The target of series [1] is PCSK9 secreted by HepG2 cells (Homo sapiens (Human), UniProt Q8NBP7). Kind of series: Effect on the concentration of PCSK9 secreted by HepG2 cells (ELISA). In kind it is cell-based. The conditions noted are these: 48 hours incubation, read-out: Inhibitory activity on PCSK9, IC50. The text has this: • 1. Experimental objective: To detect the inhibitory effect of the compounds on PCSK9. • 2. Experimental instruments and reagents: • 2.1 Instruments:
• CircuLex Human PCSK9 ELISA kit (MBL: CY-8079); • DMEM (Gibco: 31966-021) • FBS (Sigma: S5394) • Compound plate (Thermo: 1353506) • Complete culture medium: DMEM+10% FBS+1×P/S; • Experimental culture medium: DMEM+10% FBS • Cell strain: HepG2 (ATCC: HB-8065)
A self-adhesive seal was applied, the plate was placed on a plate shaker at room temperature, gently shaken, uniformly mixed, and incubated for 1 hour. • 11) The plate was placed on the plate washer, the washing liquid was set to 350 μL per well, and the plate was washed 4 times repeatedly. • 12) 100 μL/well of an HRP-conjugated detection antibody was added, a self-adhesive seal was applied, and the plate was placed on the plate shaker, well mixed uniformly, and incubated for 1 hour. • 13) The plate was placed on the plate washer, the washing liquid was set to 350 μL per well, and the plate was washed 4 times repeatedly. • 14) 100 μL/well of Substrate reagent was added, and the plate was placed in the dark, applied with a self-adhesive seal, placed on the plate shaker, well mixed uniformly, and incubated for 10-20 minutes. • 15) 100 μL/well of Stop solution (1N H2SO4) was added and mixed uniformly. • 16) The optical density (OD) value in each well was measured in sequence at a wavelength of 450 nm by the microplate reader. Detection was carried out within 30 min after the reaction was stopped.
After the OD values were read by the microplate reader, the OD value of the 0-concentration standard in the standard group was subtracted from the OD values of the standards, control group, and samples to obtain the actual OD values for these wells. A standard curve was plotted with Graphpad and the concentration of the sample was calculated. If the dilution was performed during the sample detection, the calculated sample concentration was necessarily multiplied by the corresponding dilution ratio in the final calculation, which was the actual concentration of the sample. Inhibition rate=(actual concentration in control-actual concentration in sample)/actual concentration in control*100. According to the inhibition rates corresponding to the different concentrations, IC50 was derived by Graphpad.
In general terms: ELISA stands for enzyme-linked immunosorbent assay.

Series [2] is described as follows: Pharmacokinetic determination in mice (plasma). In kind it is in vivo, C57BL/6J mice. The conditions noted are these: C57 mice, PO administration, 5 mpk. As to the method: C57BL/6J mice were used as test animals to study the pharmacokinetic behavior of the compounds of the present disclosure in mice (plasma) after oral and intravenous administration.
C57 mice, male, purchased from Shanghai Bk Lab Animal Co., Ltd., with animal production license number (SCXK (Shanghai) 2013-0006 NO.311620400001794).
• Preparation of oral drug: 10% Solutol HS15
10 g of Solutol HS15 solid was weighed, dissolved in 90 mL of pure water, uniformly mixed, stirred, and ultrasonically treated to form a clear solution.
The compound of the present disclosure was weighed and dissolved in this solution, uniformly shaken, and ultrasonically treated for 15 minutes to obtain a colorless clear solution with a concentration of 0.5 mg/mL. • Preparation of intravenous drug: 5% DMSO+10% Solutol HS15+85% PBS […]
3 male C57 mice were fasted overnight and then respectively administered PO at a dose of 5 mg/kg and a volume of 10 mL/kg. […]
Before and after administration of mice, 0.04 mL of blood was collected from the orbit at 0.083 (iv), 0.25, 0.5, 1, 2, 4, 8, and 24 hours, and placed in EDTA-K2 test tubes, which was centrifuged at 6000 rpm at 4° C. for 6 min to separate plasma which was stored at −80° C.; and the […] were fed 4 h after administration.
The final determination results were obtained by using an LCMS/MS method.
The main pharmacokinetic parameters were calculated using WinNonlin 6.1.

Chain of PCSK9 secreted by HepG2 cells (Q8NBP7 153-692): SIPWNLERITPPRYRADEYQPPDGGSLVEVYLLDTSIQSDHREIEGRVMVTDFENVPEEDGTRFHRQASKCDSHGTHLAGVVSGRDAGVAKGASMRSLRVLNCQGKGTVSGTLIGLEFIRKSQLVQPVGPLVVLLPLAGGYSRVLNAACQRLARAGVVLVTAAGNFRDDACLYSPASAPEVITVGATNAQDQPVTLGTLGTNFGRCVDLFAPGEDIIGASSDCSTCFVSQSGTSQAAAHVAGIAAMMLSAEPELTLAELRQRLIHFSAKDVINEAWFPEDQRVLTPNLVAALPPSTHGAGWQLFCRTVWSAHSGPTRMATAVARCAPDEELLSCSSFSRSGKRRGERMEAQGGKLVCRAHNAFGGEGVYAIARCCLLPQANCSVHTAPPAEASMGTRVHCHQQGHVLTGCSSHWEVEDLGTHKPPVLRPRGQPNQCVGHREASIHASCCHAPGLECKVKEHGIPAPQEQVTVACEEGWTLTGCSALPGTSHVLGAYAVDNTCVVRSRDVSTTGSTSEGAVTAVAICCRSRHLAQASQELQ
Chain of PCSK9 secreted by HepG2 cells (Q8NBP7 31-152 partner): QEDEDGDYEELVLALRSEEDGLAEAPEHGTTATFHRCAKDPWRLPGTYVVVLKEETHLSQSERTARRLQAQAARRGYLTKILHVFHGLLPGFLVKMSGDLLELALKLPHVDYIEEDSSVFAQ

What is called IC50 is the concentration at which inhibition is half-maximal. Regarding `O=c1n(-c2ccc(N[C@H]3CC[C@H](Nc4ncc(OC(F)F)cn4)C3)nc2)c2nccnc2n1C1CC1` [Example 97, 1-Cyclopropyl-3-(6-(((1S,3S)-3-((5-(difluoromethoxy)pyrimidin-2-yl)amino)cyclopentyl)amino)pyridin-3-yl)-1,3-dihydro-2H-imidazo[4,5-b]pyrazin-2-one], in series [1], the IC50 is 11.6 µM.
On the same count and under the same terms, under `O=C1c2cc(C(F)(F)F)ncc2CN1c1ccc(N[C@H]2CC[C@H](Nc3ncc(OC(F)F)cn3)C2)nc1` [Example 138, 2-(6-(((1S,3S)-3-((5-(difluoromethoxy)pyrimidin-2-yl)amino)cyclopentyl)amino)pyridin-3-yl)-6-trifluoromethyl-2,3-dihydro-1H-pyrrolo[3,4-c]pyridin-1-one] stands 0.5 µM; under `O=C1c2ncc(F)cc2CN1c1ccc(N[C@H]2CC[C@H](Nc3nc4cc(C(F)(F)F)ccn4n3)C2)nc1` [Example 163, 3-Fluoro-6-(6-(((1S,3S)-3-((7-(trifluoromethyl)-[1,2,4]triazolo[1,5-a]pyridin-2-yl)amino)cyclopentyl)amino)pyridin-3-yl)-5,6-dihydro-7H-pyrrolo[3,4-b]pyridin-7-one], 12 µM; under `O=C1c2cnccc2CN1c1ccc(N[C@H]2CC[C@H](Nc3ncc(OC(F)F)cn3)C2)nc1` [Example 75, 2-(6-(((1S,3S)-3-((5-(difluoromethoxy)pyrimidin-2-yl)amino)cyclopentyl)amino)pyridin-3-yl)-1,2-dihydro-3H-pyrrolo[3,4-c]pyridin-3-one], 9 µM.
On the same count and under the same terms, the result for `O=C1c2cc(F)cnc2CN1c1ccc(N[C@H]2CC[C@H](Nc3ncc(OC(F)F)cn3)C2)nc1` [Example 137] reads 7.4 µM; that for `O=C1c2ncc(F)cc2CN1c1ccc(N[C@H]2CC[C@H](Nc3ncc(OC(F)F)cn3)C2)nc1` [Example 136], 9.6 µM.
Same read-out and setting: under `O=c1c(-c2ccc(N[C@H]3CC[C@H](Nc4ncc(OC(F)F)cn4)C3)nc2)cnc2ccccn12` [Example 108, 3-(6-(((1S,3S)-3-((5-(difluoromethoxy)pyrimidin-2-yl)amino)cyclopentyl)amino)pyridin-3-yl)-4H-pyridino[1,2-a]pyrimidin-4-one] stands 3.8 µM; under `O=S1(=O)c2ncccc2CN1c1ccc(N[C@H]2CC[C@H](Nc3ncc(OC(F)F)cn3)C2)nc1` [Example 121], 27.3 µM.
In the case of `O=c1ccccn1-c1ccc(N[C@H]2CC[C@H](Nc3nsc(C4CC4)n3)C2)nc1` [Example 78, 6′-(((1S,3S)-3-((5-cyclopropyl-1,2,4-thiadiazol-3-yl)amino)cyclopentyl)amino)-2H-[1,3′-bipyridinyl]-2-one], the half-maximal inhibitory concentration (IC50) in series [1] is 14.2 µM.
The same measure, in the same setting: the result for `N#Cc1cnn2c(-c3ccc(N[C@H]4CC[C@H](Nc5ncc(OC(F)F)cn5)C4)nc3)ccnc12` [Example 118, 7-(6-(((1S,3S)-3-((5-(difluoromethoxy)pyrimidin-2-yl)amino)cyclopentyl)amino)pyridin-3-yl) pyrazolo[1,5-a]pyrimidine-3-carbonitrile] reads 0.5 µM.
For `CC1(C)CCN(c2ccc(N[C@H]3CC[C@H](Nc4ncc(OC(F)F)cn4)C3)nc2)S1(=O)=O` [Example 119], the IC50 in series [1] amounted to 17.4 µM.
Same read-out and setting: under `CC1(C)C(=O)N(c2ccc(N[C@H]3CC[C@H](Nc4ncc(OC(F)F)cn4)C3)nc2)c2cccnc21` [Example 150] stands 14.4 µM.
Same read-out and setting: under `O=C1c2nc(C3CC3)ccc2CN1c1ccc(N[C@H]2CC[C@H](Nc3ncc(OC(F)F)cn3)C2)nc1` [Example 141] stands 1.8 µM.
The term MRT denotes a mean duration of stay, worked out from the concentration-time curve. In the case of `Cc1ccn2nc(N[C@H]3CC[C@H](Nc4ccc(-n5ccccc5=O)cn4)C3)nc2c1` [Example 87, 6′-(((1S,3S)-3-((7-methyl-[1,2,4]triazolo[1,5-a]pyridin-2-yl)amino)cyclopentyl)amino)-2H-[1,3′-bipyridinyl]-2-one], the Time to peak tmax in series [2] was found to be 15 min. Also, the AUC(0-inf) in series [2] (male, C57BL/6J, mouse, 5 mg/kg, read-out: Area under the curve AUC0-∞) came to 10700 ng·h/mL. Moreover, the half-life in series [2] (male, C57BL/6J, mouse, 5 mg/kg, read-out: Half-life t1/2 (converted)) is 282 min. In series [2] (male, C57BL/6J, mouse, 5 mg/kg, read-out: Mean residence time MRT), the MRT was determined as 3.1 h. Also, the Cmax in series [2] (male, C57BL/6J, mouse, 5 mg/kg, read-out: Plasma concentration Cmax) is 5510 ng/mL.
